In ChEMBL document CHEMBL1201862, “PubChem BioAssay data set” (2004):
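These data come from cells grown in 96-well plates and exposed to compound for 48 hours at five concentrations. Here, GI50 denotes the concentration required for 50% inhibition of growth.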 Activity calls are given as the source filed them. No stated cut-off is given here; in the data, active = GI50 up to about 1.1 µM and inactive = higher.

What was measured:
Assay in all cases: DTP human tumour cell line panel, 48 h
KM-20L2 = tested on: KM-20L2
HOP-18 = tested on: HOP-18
DMS-114 = tested on: DMS-114
RXF 631 = tested on: RXF 631
XF498 = tested on: XF498
DLD-1 = tested on: DLD-1
M19-MEL = tested on: M19-MEL
BT-549 = tested on: BT-549
MDA-N = tested on: MDA-N

Measured: GI50

COc1cccc2c1C(=O)c1c(O)c3c(c(O)c1C2=O)C[C@@](O)(C(C)=O)CC3S(=O)(=O)O (stereo not given in full)
inactive: KM-20L2 > 100 µM | HOP-18 > 100 µM | DMS-114 > 100 µM | RXF 631 > 100 µM | XF498 > 100 µM | DLD-1 > 100 µM | M19-MEL > 100 µM

C=CCCC(=O)CC(=O)OCc1ccccc1
inactive: KM-20L2 > 100 µM | HOP-18 > 100 µM | DMS-114 > 100 µM | RXF 631 > 100 µM | XF498 > 100 µM | DLD-1 > 100 µM | M19-MEL > 100 µM

COc1ccc2c(c1)[n+]([O-])c(/C(C)=N/NC(N)=S)c(C)[n+]2[O-]
inactive: KM-20L2 39.4 µM | HOP-18 95.1 µM | DMS-114 36 µM | RXF 631 44.4 µM | XF498 39 µM | BT-549 90.4 µM | DLD-1 57.9 µM | M19-MEL 86.9 µM | MDA-N 51.3 µM

CC1=C[C@]2(O)C(=O)[C@H](C)C[C@H]3[C@@H](CC[C@@](C)(O)/C=C\2C1=O)C3(C)C
inactive: KM-20L2 14.5 µM | HOP-18 44.9 µM | DMS-114 22.6 µM | RXF 631 31.1 µM | XF498 16.3 µM | DLD-1 17.5 µM | M19-MEL 18.5 µM
